Format in all cases: cell-based
In test [1] the target is T1, GPR43 (Homo sapiens, UniProt O15552).
T1 construct: expressed in transfected cells
T1 sequence (O15552 1-330): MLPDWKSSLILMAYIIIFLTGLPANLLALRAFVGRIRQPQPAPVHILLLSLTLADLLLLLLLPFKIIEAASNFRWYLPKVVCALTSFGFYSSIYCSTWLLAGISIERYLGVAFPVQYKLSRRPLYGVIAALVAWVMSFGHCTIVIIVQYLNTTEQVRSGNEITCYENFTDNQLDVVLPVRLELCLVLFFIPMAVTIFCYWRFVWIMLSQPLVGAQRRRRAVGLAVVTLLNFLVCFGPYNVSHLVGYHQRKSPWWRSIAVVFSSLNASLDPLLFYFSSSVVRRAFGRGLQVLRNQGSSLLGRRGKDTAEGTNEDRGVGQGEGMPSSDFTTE
Nature of the test: Calcium mobilization assay without probenecid. Conditions: GPR43 stably expressing cells, triggered with sodium acetate at EC80, read-out: GPR43 assay without probenicid IC50. In a few lines: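 In GPR43-expressing cells loaded with a Calcium 4 dye, antagonism was tested by a 15 min compound preincubation at 37 °C, then a sodium acetate challenge at EC80, with Ca-flux read on injection. For agonism, Ca-flux was recorded directly on compound injection.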
In general terms: Calcium assays in cells follow changes in intracellular calcium, usually with a dye or a luminescent sensor.

Test [2] deals with T1, GPR43. As to the kind of experiment: Calcium mobilization assay with probenecid. Conditions: GPR43 stably expressing cells; triggered with sodium acetate at EC80; 2.5 mM probenecid; read-out: GPR43 assay with probenicid IC50. In a few lines: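 […] being added at rising concentrations to a GPR43 stable line. Before this, cells were dye-loaded (Calcium 4 with 2.5 mM probenecid) for 2 h at 37 °C after overnight plating.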

The test system of a further test is human neutrophils. Nature of the test: Neutrophil migration assay. Conditions: neutrophils from human buffy coat, migration towards sodium acetate, read-out: human neutrophil migration inhibition EC50. On the procedure: G Protein-Coupled Receptor 43 (GPR43) was described as an essential player in the process of neutrophil recruitment during intestinal inflammation.
The effect of agonists or antagonists for GPR43 can therefore be assayed in a neutrophil migration test. In the neutrophil migration assay, neutrophils, isolated from buffy coats from human volunteers, are treated with a compound for 30 minutes. Subsequently, the neutrophils are transferred to the upper wells of a Corning HTS transwell 96 permeable support system, of which the lower wells are filled with a sodium acetate solution.
The ACD buffer consists of 140 mM citric acid, 200 mM sodium citrate and 220 mM dextrose. The 6% dextran/0.9% NaCl solution consists of 15 g dextran T2000 and 2.25 g NaCl dissolved in 250 mL H2O.
A human buffy coat is diluted with an equal volume of ice cold DPBS. 20 mL of the diluted buffy coat is gently mixed with 4 mL of ACD buffer. Then, 12 mL of the 6% dextran/0.9% NaCl solution is added to the mixture and the samples are inverted gently up to 20 times. The total volume is transferred to a new recipient and incubated at room temperature for 1 h for complete separation of the two phases to occur. The yellowish supernatant is then transferred to a clean centrifugation tube and centrifuged for 12 minutes at 1300 rpm and 4° C. After centrifugation, the supernatant is discarded and the remaining cell pellet is rapidly resuspended in 12 mL of ice-cold H2O for red blood cell lysis to occur. After 20 seconds, 4 mL of ice-cold 0.6 M KCl is added. Samples are mixed carefully and centrifuged for 6 minutes at 1300 rpm, 4° C. The supernatant is discarded and the red blood cell lysis procedure is repeated one more time. […] After centrifugation for 12 min at 1300 rpm, 4° C., the supernatant is removed and the cell pellet, containing the neutrophils, is resuspended in 25 mL chemotaxis buffer.
A cell suspension of 8.9×10^6 cells per milliliter is prepared. 20 μL of compound solution in chemotaxis buffer is added to 180 μl cell suspension. The mixture is incubated at 37° C. for 30 minutes with Intermediate resuspension of the cells after 15 minutes. […] The receiver well of the transwell system is then filled with 200 μL chemotaxis buffer containing compound and chemotactic agent (sodium acetate). After incubation at 37° C. in 5% CO2 for 1 h, the upper plate of the transwell system is removed and the cell suspension in the receiver plate is transferred to a 96-well V-bottom plate. 50 μL of DPBS is added to the receiver plate to prevent remaining cells from drying out. The V-bottom plate is centrifuged for 6 minutes at 1500 rpm. The supernatant is removed and the cells are resuspended in 50 μL DPBS. The cells are then transferred back to the receiver plate of the transwell system. […] The plate is incubated for 10 minutes in the dark, while shaking. 170 μL of cell lysate is then transferred to a white 96-well plate and luminescence is measured. The detected luminescent signal is considered as linearly related to the number of migrated cells.

The structures appear in SMILES notation.

Usually IC50 stands for the concentration at which inhibition is half-maximal. `CC1(C(=O)N(CC(=O)O)Cc2ccc(Cl)cc2)CCN1C(=O)Cc1csc2ccccc12` (stereo not shown) [Compound 61, [[1-(2-Benzo[b]thiophen-3-yl-acetyl)-2-methyl-azetidine-2-carbonyl]-(4-chloro-benzyl)-amino]-acetic acid]: the IC50 at GPR43 [1] and at GPR43 [2] was 0.01 to 100 nM throughout. For the same molecule, the EC50 in the test on human neutrophils was in the range of 0.01 to 100 nM.

For `CC1(C(=O)N(CCCC(=O)O)Cc2ccc(Cl)cc2)CCN1C(=O)Cc1csc2ccccc12` (stereo not shown) [Compound 89, 4-[[1-(2-Benzo[b]thiophen-3-yl-acetyl)-2-methyl-azetidine-2-carbonyl]-(4-chloro-benzyl)-amino]-butyric acid], the IC50 on GPR43 [1] and at GPR43 [2] was 0.01 to 100 nM throughout. Besides, in the test with human neutrophils, the EC50 was in the range of 0.01 to 100 nM.

For the molecule `Cc1cc(C)cc(CC(=O)N2CCC2(C)C(=O)N(CCCC(N)=O)Cc2ccc(Cl)cc2)c1` (stereo not shown) [Compound 90, 1-[2-(3,5-Dimethyl-phenyl)-acetyl]-2-methyl-azetidine-2-carboxylic acid (3-carbamoyl-propyl)-(4-chloro-benzyl)-amide], the IC50 at GPR43 [1] is 0.01 to 100 nM; at GPR43 [2] it was 101 to 500 nM. In addition, the EC50 in the test with human neutrophils lay within 0.01 to 100 nM.

Turning to `Cc1cc(C)cc(CC(=O)N2CCC2(C)C(=O)N(CC(=O)O)Cc2ccc3cc[nH]c3c2)c1` (stereo not shown) [Compound 96, [{1-[2-(3,5-Dimethyl-phenyl)-acetyl]-2-methyl-azetidine-2-carbonyl}-(1H-indol-6-ylmethyl)-amino]-acetic acid], the IC50 at GPR43 [1] and at GPR43 [2] was 101 to 500 nM each time. In addition, the EC50 in the test with human neutrophils is 0.01 to 100 nM.

Regarding `CC1(C(=O)N(CCCC(=O)O)Cc2ccc3cn[nH]c3c2)CCN1C(=O)Cc1csc2ccccc12` (stereo not shown) [Compound 130, 4-[[1-(2-Benzo[b]thiophen-3-yl-acetyl)-2-methyl-azetidine-2-carbonyl]-(1H-indazol-6-ylmethyl)-amino]-butyric acid], the IC50 at GPR43 [2] was 0.01 to 100 nM. Moreover, the EC50 in the test on human neutrophils is 101 to 500 nM.

With `CC1(C(=O)N(CCCC(=O)O)Cc2ccc3ccoc3c2)CCN1C(=O)Cc1csc2ccccc12` (stereo not shown) [Compound 131, 4-{[1-(2-Benzo[b]thiophen-3-yl-acetyl)-2-methyl-azetidine-2-carbonyl]-benzofuran-6-ylmethyl-amino}-butyric acid], on GPR43 [2], the IC50 was in the range of 0.01 to 100 nM. The EC50 with human neutrophils is 101 to 500 nM.

For the molecule `Cc1cc(C)cc(CC(=O)N2CCC2(C)C(=O)N(Cc2ccc(Cl)cc2)Cc2cc(O)no2)c1` (stereo not shown) [Compound 132, 1-[2-(3,5-Dimethyl-phenyl)-acetyl]-2-methyl-azetidine-2-carboxylic acid (4-chloro-benzyl)-(3-hydroxy-isoxazol-5-ylmethyl)-amide], the IC50 at GPR43 [2] lay within 0.01 to 100 nM. Besides, the EC50 with human neutrophils lay within 101 to 500 nM.

In the case of `CC1(C(=O)N(CCCC(=O)O)Cc2ccc3cc[nH]c3c2)CCN1C(=O)Cc1coc2ccccc12` (stereo not shown) [Compound 137, 4-[[1-(2-Benzofuran-3-yl-acetyl)-2-methyl-azetidine-2-carbonyl]-(1H-indol-6-ylmethyl)-amino]-butyric acid], the IC50 on GPR43 [2] was in the range of 0.01 to 100 nM. In the test on human neutrophils, the EC50 lay in the range of 0.01 to 100 nM.

As to `CC1(C(=O)N(CCCC(=O)O)Cc2ccc3cn[nH]c3c2)CCN1C(=O)c1csc2ccccc12` (stereo not shown) [Compound 157, 4-[[1-(Benzo[b]thiophene-3-carbonyl)-2-methyl-azetidine-2-carbonyl]-(1H-indazol-6-ylmethyl)-amino]-butyric acid], the IC50 on GPR43 [2] fell in the range of 101 to 500 nM. Also, in the test with human neutrophils, the EC50 was in the range of 0.01 to 100 nM.

These data come from patent publication US8759334B2, “Compounds useful for the treatment of metabolic and inflammatory diseases” (Galapagos NV, priority 2011, dated 2014).
